Legend:
[1] = test system: pulmonary metastasis of MDA-MB-435-Luc+; assay: MDA-MB-435-Luc+ pulmonary metastasis; type: in vivo, ICR SCID mice; details: ABX 10 mg/kg two cycles; Avastin® 4 mg/kg
Procedure: Tumor metastasis was determined by measuring luciferase activity in tissue extracts derived from 10 axillary lymph nodes (“LN”) and both lobes of the lungs. Lymph nodes and lungs were excised, washed in PBS, and homogenized in 0.35 ml of cold CCLR buffer (Promega, Madison, Wis.) containing a protease inhibitor cocktail and PMSF (Sigma, Mo.). Cell debris was removed by centrifugation. Protein concentrations of cleared lysates were determined by Bradford assay (Bio-Rad, Hercules, Calif.). Fifty μl of Luciferase Assay Reagent (Promega, Madison, Wis.) was mixed with 10 μl of cleared lysate and a 10 second average of luminescence was detected using a single tube luminometer (Berthold, Germany). […] The net results were expressed as relative light units (“RLU”) normalized per mg of total lysate protein. […] Differences in lymph node and lung metastases were assessed for statistical significance by Fisher's exact test using GraphPad InStat (GraphPad Inc., San Diego, Calif.) or SPSS 14.0 (SPSS, Inc., Chicago, Ill.).

[2] = test system: MDA-MB-231-Luc+ human breast cancer xenografts; assay: MDA-MB-231-Luc+ xenografts, one or two cycles of Abraxane® with Avastin® (Example 29); type: in vivo, nude (nu/nu) mice; details: for % Complete Regression: day 65
Procedure: One or two cycles of Abraxane® were administered. In two-cycle Abraxane® treatment, a second cycle of Abraxane® (10 mg/kg, i.v. qd×5) was administered one week after conclusion of the first cycle.

[3] = test system: Luciferase-expressing MDA-MB-231 human breast cancer xenografts; assay: Luciferase-expressing MDA-MB-231 xenografts, tumor growth (Example 26); type: in vivo, nude (nu/nu) mice
Procedure: Abraxane®, either alone or in combination, was administered at 10 mg/kg/day daily for 5 days in two cycles separated by 1 week. […] Mice were monitored for tumor growth and drug toxicity. Mice were sacrificed when the mean tumor volume in the saline-treated control group reached 2000 mm^3.
Tumor growth inhibition (TGI) was calculated by comparing mean tumor volume of test groups to that of the control group at the last measurement of the control group.

[4] = test system: lymph node metastasis of MDA-MB-435-Luc+; assay: MDA-MB-435-Luc+ lymph node metastasis; type: in vivo, ICR SCID mice; details: ABX 10 mg/kg two cycles; Avastin® 4 mg/kg
Procedure: Two cycles of Abraxane® treatment were administered, each for 5 consecutive days with one week of rest between cycles. […] The control group received PBS injected i.v. or i.p. […] Lymph nodes and lungs were excised, washed in PBS, and homogenized in 0.35 ml of cold CCLR buffer (Promega, Madison, Wis.) containing a protease inhibitor cocktail and PMSF (Sigma, Mo.). Cell debris was removed by centrifugation. Protein concentrations of cleared lysates were determined by Bradford assay (Bio-Rad, Hercules, Calif.). […] CCLR buffer without tissue homogenates and lymph nodes or lungs of non-tumor bearing mice were assayed for background signal and subtracted from the results. The net results were expressed as relative light units (“RLU”) normalized per mg of total lysate protein. […] This value was chosen because it was the minimal signal reproducibly detected above background in metastatic tissues, independently confirmed by immunohistochemical detection (data not shown). Differences in lymph node and lung metastases were assessed for statistical significance by Fisher's exact test using GraphPad InStat (GraphPad Inc., San Diego, Calif.) or SPSS 14.0 (SPSS, Inc., Chicago, Ill.).

Abraxane®-treated cells [5] = assay: In vitro cellular cytotoxicity assay with VEGF-A or Avastin®; type: cell-based; details: Abraxane® 1 to 24 nM
Procedure: Cells were treated with Abraxane® in a range of concentrations (1 to 24 nM).

[6] = test system: MDA-MB-231-Luc+ lymphatic and pulmonary metastases; assay: Lymphatic and pulmonary metastasis of well-established 231-Luc+ tumors (Example 32); type: in vivo, nu/nu mice; details: Abraxane® 30 mg/kg qd×5; Avastin® 4 mg/kg q2×wkly; tumors ~460 mm^3
Procedure: MDA-MB-231 or 231-Luc^+ cells were implanted into the MFP of 4 to 6 week old female nu/nu mice (Harlan Sprague-Delaney, Indianapolis, Ind.) by standard methods. Briefly, mice were anesthetized and 100 μl of cell suspension containing 4×10^6 cells and 50% Matrigel (Sigma, Mo.) were injected into the MFP. Every 2-3 days, perpendicular tumor diameters were measured by digital caliper and used to calculate tumor volume according to the formula: Volume=Dd^2π/6, where D=larger diameter and d=smaller diameter. […] Animal care was in accordance with institutional guidelines.
Luciferase-expressing orthotopic MDA-MB-231 (231-Luc+) xenografts were grown to well-established tumors (˜460 mm^3) and randomized to four groups of N=5, 6 or 7.
Metastases of MDA-MB-231-Luc+ tumor cells were identified by measuring luciferase activity in tissue extracts from lymph nodes and lungs, as described in Example 31 above. […] This value was chosen because it represented the minimal signal which could be reproducibly detected above background in tissues in which metastases were independently confirmed by immunohistochemical detection of human cells. The net results were expressed as relative light units (RLU) normalized per mg of total lysate protein, and are presented in FIG. 17A (lymphatic metastasis) and FIG. 17B (pulmonary metastasis).

Abraxane®-treated cells [7] = assay: In vitro clonogenic assay; type: cell-based
Procedure: Cells were treated with saline control, Abraxane® alone, VEGF-A alone, Avastin® alone, Abraxane®+VEGF-A or Abraxane®+Avastin®.

MDA-MB-435-Luc+ tumors = assay: MDA-MB-435-Luc+ tumor growth (Example 31); type: in vivo, ICR SCID mice
Procedure: MDA-MB-435-Luc+ (“435-Luc+”) cells were implanted subcutaneously into the mammary fat pad of 4 to 6 week old female ICR SCID mice (Taconic, Hudson, N.Y.). Every 2-3 days, perpendicular tumor diameters were measured by digital caliper and used to calculate tumor volume according to the formula: volume=Dd^2π/6, where D=larger diameter and d=smaller diameter. […] Animal care was in accordance with institutional guidelines.
Two cycles of Abraxane® treatment were administered, each for 5 consecutive days with one week of rest between cycles. […] To allow maximal development of metastatic foci, mice were sacrificed when the average tumor volume in the control group reached 2000 mm^3.

VEGF-A protein = VEGF-A protein in tumor extracts by ELISA
Procedure: All drugs and control saline were administered i.v. in a volume of 100 μl daily for 5 days. Mice were sacrificed, tumors were harvested and tumor cellular extracts were prepared. VEGF-A protein levels in tumor extracts were determined by ELISA.

[8] = test system: MDA-MB-231 human breast cancer xenografts; assay: MDA-MB-231 xenografts: tumor growth, necrosis, hypoxia (Example 24); details: i.v. qdx5; Taxol® 10, Abraxane® 15, Doxorubicin 10 mg/kg/day
[9] = test system: MCF7-R (pgp+) multidrug resistant variant
Procedure: (§1) Its cytotoxicity was also assessed against the NCI-60 human tumor cell line panel.

MCF7-S breast carcinoma = assay: Cytotoxic activity in MCF7-S; type: cell-based, human
[10] = test system: NCI-60 human tumor cell line panel; assay: NCI-60 human tumor cell line panel; type: cell-based; details: NCI 60 panel
Procedure: as §1

[11] = test system: MDA-MB-435 human breast tumor xenografts; assay: MDA-MB-435 human tumor xenografts treated with HKP, Abraxane® or both; type: in vivo, mice; details: nineteen weeks; HKP 250 ug i.v. weekly x16; Abraxane® 10 mg/kg/day i.v. x5 days
Procedure: Methods: MDA-MB-435 human tumor xenografts were established at an average tumor volume of 100 mm^3, mice were randomized into groups of 12-13 animals and treated with HKP, Abraxane®, or HKP and Abraxane®. HKP was delivered i.v. (250 ug), once a week, for 16 weeks. Abraxane® was administered i.v., daily for 5 days at 10 mg/kg/day only for the first week of treatment. The Abraxane® dose used was substantially below its MTD (30 mg/kg/day, qd×5) to prevent the tumor from complete regression so effect of HKP could be noted.

[12] = Experiment No. 1: one cycle, Avastin® 2 mg/kg
[13] = Experiment No. 2: two cycles, Avastin® 4 mg/kg

Avastin®: anti-VEGF antibody bevacizumab
Pulmonary metastasis % Inhibition vs. Control [1]: 50%
Mean Tumor Volume ([2]; Experiment No. 1: one cycle of Abraxane® 10 mg/kg, Avastin® 2 mg/kg): 953 ± 127 mm^3
% TGI [2, 12]: 54.16%
% Complete Regression [2, 12]: 0%
% TGD ([2]; Experiment No. 1: one cycle, Avastin® 2 mg/kg, time to 1000 mm^3 vs control): 13%
Mean Tumor Volume ([2]; Experiment No. 2: two cycles of Abraxane® 10 mg/kg, Avastin® 4 mg/kg): 2089 ± 251 mm^3
% TGD [2, 13]: 7%
% TGI [2, 13]: 12.56%
% Complete Regression [2, 13]: 0%
% TGI ([3]; Abraxane® 10 mg/kg/day two cycles, Avastin® 4 mg/kg): 12.56%
Mean Tumor Volume ([3]; Abraxane® 10 mg/kg/day x5 days, two cycles, Avastin® 4 mg/kg twice a week for 6 weeks): 2089 ± 251 mm^3
% Complete Regression ([3]; day 65, Abraxane® two cycles, Avastin® 4 mg/kg): 0%
Lymph node metastasis % Inhibition vs. Control [4]: 100%
effect of addition on in vitro cytotoxicity of Abraxane® (Abraxane®-treated cells [5]): increased the in vitro cytotoxicity of Abraxane®
lymphatic and pulmonary metastases [6]: failed to prevent metastasis
number of colonies formed (Abraxane®-treated cells [7]): slight reduction in the number of colonies formed
% Complete Regressions (MDA-MB-435-Luc+ tumors; 92 days): 0%
tumor volume (MDA-MB-435-Luc+ tumors; ABX 10 mg/kg i.v. qd×5 two cycles, Avastin® 4 mg/kg i.p. twice a week): 792 mm^3
% TGI (MDA-MB-435-Luc+ tumors; ABX 10 mg/kg two cycles, Avastin® 4 mg/kg): 60.79%

COc1cccc2c1C(=O)c1c(O)c3c(c(O)c1C2=O)C[C@@](O)(C(=O)CO)C[C@@H]3O[C@H]1C[C@H](N)[C@H](O)[C@H](C)O1 [Doxorubicin]
VEGF-A (VEGF-A protein; tumor extracts, i.v. qdx5): 754 ± 49 pg/mg protein
increase in VEGF-A protein levels (VEGF-A protein; vs saline control): 124%
% TGI [8]: 45%
Mean Tumor Volume [8]: 287 ± 56 mm^3

COc1cc2c(c(OC)c1OC)-c1ccc(SC)c(=O)cc1[C@@H](NC(=O)CCNC(=O)N[C@H]1CCc3cc(OC)c(OC)c(OC)c3-c3ccc(SC)c(=O)cc31)CC2 [IDN5404]
fold resistance MCF7-R vs MCF7-S [9]: > 10 fold
IC50 ([9]; MCF7-R): 40 ± 3.8 nM
IC50 (MCF7-S breast carcinoma): 1.7 ± 0.1 nM
IC50 [10]: < 10 nM

CNGRC-GG-d(KLAKLAK)2 [HKP]
tumor volume [11]: 4,372 mm^3
